# Values quoted from earlier work, collected in patent publication US20220168121A1, “FIBROSIS-INDUCING DRUG-ELUTING STENT FOR BLOCKING ELECTRIC CONDUCTION” (SUNGKWANG MEDICAL FOUNDATION, priority 2019, published 2022).
# Structures can show the parent of a compound that is named as a salt.
SMILES,water solubility,stability in a solid state (solid state)
CCCCC(CC)CCC(CC(C)C)OS(=O)(=O)O (stereo not drawn) [sodium tetradecyl sulfate],water soluble,unstable properties in a solid state
CCCCCCCCCCCCCCOS(=O)(=O)O [sodium tetradecyl sulfate],water insoluble,–
